Drawing on BindingDB's records for doi:10.1016/s1074-5521(97)90198-8 (Massachusetts Institute of Technology, 1997), this text covers IC50 for ten compounds.

Broadly, the IC50 is the concentration that gives 50% inhibition. Read a low IC50 as higher potency.

Methionine aminopeptidase 2, sequence (P50579 whole entry): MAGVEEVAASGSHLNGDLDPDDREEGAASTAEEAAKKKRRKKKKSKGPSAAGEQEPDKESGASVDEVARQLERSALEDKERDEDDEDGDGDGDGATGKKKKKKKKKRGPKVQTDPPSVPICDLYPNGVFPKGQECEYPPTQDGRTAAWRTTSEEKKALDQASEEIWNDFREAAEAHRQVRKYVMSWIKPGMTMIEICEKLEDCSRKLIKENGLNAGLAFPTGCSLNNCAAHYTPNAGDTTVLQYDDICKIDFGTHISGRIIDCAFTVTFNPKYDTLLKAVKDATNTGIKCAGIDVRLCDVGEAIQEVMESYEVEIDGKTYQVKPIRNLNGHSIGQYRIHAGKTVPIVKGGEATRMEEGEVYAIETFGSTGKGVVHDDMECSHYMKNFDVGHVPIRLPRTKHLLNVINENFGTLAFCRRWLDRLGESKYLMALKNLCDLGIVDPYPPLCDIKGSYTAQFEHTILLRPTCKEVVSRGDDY

The target of the experiment is Methionine aminopeptidase 2 (Homo sapiens, UniProt P50579). Kind of experiment: Enzymatic Assay. The note with it: pH 7.35; 37 °C. The text has this:
Enzymatic assay using recombinant human type 2 methionine aminopeptidase (MetAP2).
`CO[C@H]1C([C@]2(C)OC2CC=C(C)C)[C@]2(CC[C@H]1O)CO2` (stereo not given in full) [FOS-37] came in with a concentration for half-maximal inhibition (IC50) of 8 nM.

Turning to `CO[C@@H]1[C@H](OC(=O)CCCCl)CC[C@]2(CO2)[C@@]1(O)[C@]1(C)OC1CC=C(C)C` (stereo not given in full) [FOS-69], inhibition was half-maximal at 0.1 nM (IC50).

Compound `CO[C@@H]1[C@H](O)CC[C@]2(CO2)[C@@]1(O)[C@]1(C)OC1CC=C(C)C` (stereo not given in full) [FOS-34] had an IC50 of 4 nM.

On to `CO[C@H]1C([C@]2(C)OC2CC=C(C)C)[C@@](O)(SC)CC[C@H]1OC(=O)NC(=O)CCl` (stereo not given in full) [FOS-64], for which inhibition was half-maximal at 3000 nM (IC50).

Regarding `CO[C@H]1C([C@]2(C)OC2CC=C(C)C)[C@]2(CC[C@H]1OC(=O)NC(=O)CCl)CO2` (stereo not given in full) [AGM-1470], the IC50 turned out to be 1 nM.

Regarding `CO[C@H]1C([C@]2(C)OC2CC=C(C)C)[C@@](O)(SC)CC[C@H]1O` (stereo not given in full) [FOS-202], the IC50 came to 5000 nM. Compared with the last compound, the IC50 is about 5000-fold higher.

In turn, `CO[C@H]1C([C@]2(C)OC2CC=C(C)C)[C@]2(CC[C@H]1OC(=O)CCCCl)CO2` (stereo not given in full) [FOS-70] yielded a half-maximal inhibitory concentration (IC50) of 3.5 nM.

`CO[C@@H]1[C@H](OC(=O)NC(=O)CCl)CC[C@]2(CO2)[C@@]1(O)[C@]1(C)OC1CC=C(C)C` (stereo not given in full) [FOS-68] displayed an IC50 of 2 nM.

The compound `CO[C@@H]1C(=O)CC[C@]2(CO2)C1[C@]1(C)OC1CC=C(C)C` (stereo not given in full) [FOS-72] returned a half-maximal inhibitory concentration (IC50) of 6 nM. This IC50 is about 3-fold higher than that of the compound before.

In turn, `CO[C@@H]1[C@H](O)CC[C@](O)(SC)[C@@]1(O)[C@]1(C)OC1CC=C(C)C` (stereo not given in full) [FOS-201] displayed an IC50 of 45 nM. This IC50 is about 7.5-fold higher than that of the compound before.
